Assay results from PMC5438088 (ChemMedChem, 2015).
Several values for one entry are separate records, joined by “and”; a condition that tells them apart may be missing. Equal entries are not always repeated. Where two headings read alike, the source gives them in different places. Each block holds one compound with its values, some of them ahead of it.

Key:
hcSHMT [1] = biological target: T1, hcSHMT (Homo sapiens, UniProt P34896); assay type: binding
T1 sequence (P34896 1-483): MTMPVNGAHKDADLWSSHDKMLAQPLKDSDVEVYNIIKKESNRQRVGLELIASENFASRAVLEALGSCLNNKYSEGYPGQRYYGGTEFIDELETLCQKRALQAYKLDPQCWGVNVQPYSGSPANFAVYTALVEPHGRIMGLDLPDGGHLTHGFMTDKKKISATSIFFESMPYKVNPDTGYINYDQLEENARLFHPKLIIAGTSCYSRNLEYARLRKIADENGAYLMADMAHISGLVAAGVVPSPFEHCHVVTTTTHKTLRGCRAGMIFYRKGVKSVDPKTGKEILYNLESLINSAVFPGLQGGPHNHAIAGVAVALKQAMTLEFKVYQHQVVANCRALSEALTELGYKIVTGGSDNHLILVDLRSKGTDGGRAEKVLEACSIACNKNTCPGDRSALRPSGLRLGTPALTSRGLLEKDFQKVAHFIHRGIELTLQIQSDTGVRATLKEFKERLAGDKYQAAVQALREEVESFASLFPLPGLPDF

SHMT = conditions: cited from earlier work
hcSHMT [2] = biological target: T1, hcSHMT; test: Isothermal titration calorimetry; assay type: binding; conditions: ITC, 25°C, 10 mM glycine

- Kd (hcSHMT [1]): 1500 nM
- n (binding stoichiometry) (hcSHMT [2]): 0.51±0.03
- ΔH (heat of binding) (hcSHMT [2]): 4.64 ± 0.39 kcal/mol
- ΔS (hcSHMT [2]): 42.4 cal mol^−1/deg
- Kd (hcSHMT [2]): 1360 ± 490 nM
Structure (SMILES): Nc1nc2c(c(=O)[nH]1)N(C=O)C(CNc1ccc(C(=O)N[C@@H](CCC(=O)O)C(=O)O)cc1)CN2 (stereo partly shown) [Leucovorin, 5-formyltetrahydrofolate]
- inhibition of SHMT (SHMT; both SHMT isoforms): potent, low-micromolar inhibitor

Structure (SMILES): Nc1nc2c(c(=O)[nH]1)C[C@@H](CCc1ccc(C(=O)N[C@@H](CCC(=O)O)C(=O)O)cc1)CN2 [Lometrexol]
- inhibition mechanism (hcSHMT [1]; with respect to leucovorin, double reciprocal plot): competitive inhibitor
- ΔH (heat of binding) (hcSHMT [2]): 3.50 ± 0.06 kcal/mol
- ΔS (hcSHMT [2]): 38.0 cal mol^−1/deg
- n (binding stoichiometry) (hcSHMT [2]; listed as LTX): 0.53±0.05
- Kd (hcSHMT [2]): 2000 nM and 1990 nM

Structure (SMILES): CC1(C)N=C(N)N=C(N)N1c1ccc(CCCCc2ccc(S(=O)(=O)F)cc2Cl)c(Cl)c1.CCS(=O)(=O)O [NSC127755]
- inhibition of SHMT (SHMT): irreversible inhibitor

Structure (SMILES): Nc1nc2[nH]cc(CCc3ccc(C(=O)N[C@@H](CCC(=O)O)C(=O)O)cc3)c2c(=O)[nH]1 [Pemetrexed, (S)-2-[4-[2-(4-amino-2-oxo-3,5,7-triazabicyclo[4.3.0]nona-3,8,10-trien-9-yl)ethyl]benzoyl] aminopentanedioic acid]
- inhibition of hcSHMT (SHMT; hcSHMT): low micromolar inhibitor
